In publication PMC11822212, “High-throughput screening identifies Aurora kinase B as a critical therapeutic target for Merkel cell carcinoma” (Nature Communications, 2025):
Read-outs that look alike come from different tables or passages of the source.

How the values were obtained:
[1] = qHTS cell viability (CellTiter-Glo, 72 h; primary screen), control cell line; assay type: cell-based, human; conditions: human, HEK293T, read-out: Percent viability
MKL-1 cells (VP-MCC) = assay: qHTS cell viability (CellTiter-Glo, 72 h; primary and follow-up small molecule screen); assay type: cell-based, human
WAGA cells (VP-MCC) = assay: as above; assay type: cell-based, human; conditions: WAGA
[2] = tested on: VP-MCC cell lines (WAGA, MKL-1, MKL-2); assay: qHTS cell viability, VP-MCC cell lines as a group (mean AUC, VP.MCC.avg); assay type: cell-based, human; conditions: small molecule screen
MCC13 cells (VN-MCC) = assay: qHTS cell viability (CellTiter-Glo, 72 h; primary and follow-up small molecule screen); assay type: cell-based, human
[3] = tested on: MKL-1 (VP-MCC) xenograft tumors; set-up: method as in PMID 22572880; conditions: prior report; cited from earlier work
[4] = qHTS cell viability (CellTiter-Glo, 72 h; primary screen), control cell line; assay type: cell-based; conditions: human, read-out: Percent viability
UISO cells (VN-MCC) = assay: qHTS cell viability (CellTiter-Glo, 72 h; primary and follow-up small molecule screen); assay type: cell-based, human; conditions: UISO
[5] = qHTS cell viability (CellTiter-Glo, 72 h; primary screen), control cell line; assay type: cell-based, mouse; conditions: mouse, read-out: Percent viability
MKL-2 cells (VP-MCC) = assay: qHTS cell viability (CellTiter-Glo, 72 h; primary and follow-up small molecule screen); assay type: cell-based, human
MCC26 cells (VN-MCC) = assay: as above; assay type: cell-based, human

In the case of COCCn1c2c([n+](Cc3cnccn3)c1C)C(=O)c1ccccc1C2=O [sepantronium bromide, reference compound], the viability at 72 h, 15.4 µM ([1]; HEK293T cells (control cell line), Log (M) -4.81358) is reported as 1%, the viability at 72 h, 5.12 µM ([1]; HEK293T cells (control cell line), Log (M) -5.2907) is reported as -4.1% and the viability at 72 h, 1.71 µM ([1]; HEK293T cells (control cell line), Log (M) -5.76782) is reported as -3.3%. It also gave a viability at 72 h, 63.2 nM ([1]; HEK293T cells (control cell line), Log (M) -7.19919) of -1.7%, a viability at 72 h, 46.1 µM ([1]; HEK293T cells, Log (M) -4.33646) of -1.2% and a viability at 72 h, 21.1 nM ([1]; HEK293T cells, Log (M) -7.67631) of 23.3%. It also gave a viability at 72 h, 7.02 nM ([1]; HEK293T cells, Log (M) -8.15343) of 104%, a viability at 72 h, 2.34 nM ([1]; HEK293T cells, Log (M) -8.63055) of 100% and a viability at 72 h, 0.78 nM ([1]; HEK293T cells, Log (M) -9.10767) of 100%. It also gave a Percent viability (MKL-1 cells (VP-MCC); MKL1, Log (M) -4.33646) of 4.1%, a Percent viability (MKL-1 cells (VP-MCC); MKL1, Log (M) -4.81358) of 5.1% and a Percent viability (MKL-1 cells (VP-MCC); MKL1, Log (M) -5.2907) of 6.0%. For the same compound, the Percent viability (MKL-1 cells (VP-MCC); MKL1, Log (M) -5.76782) was 6.5%, the Percent viability (MKL-1 cells (VP-MCC); MKL1, Log (M) -6.24494) was 8.2% and the Percent viability (MKL-1 cells (VP-MCC); MKL1, Log (M) -6.72207) was 7.5%. It also gave a Percent viability (MKL-1 cells (VP-MCC); MKL1, Log (M) -7.19919) of 7.7%, a Percent viability (MKL-1 cells (VP-MCC); MKL1, Log (M) -7.67631) of 8.0% and a Percent viability (MKL-1 cells (VP-MCC); MKL1, Log (M) -8.15343) of 17.1%. It also gave a Percent viability (MKL-1 cells (VP-MCC); MKL1, Log (M) -8.63055) of 55.6%, a Percent viability (MKL-1 cells (VP-MCC); MKL1, Log (M) -9.10767) of 97.8% and a Percent viability (WAGA cells (VP-MCC); Log (M) -4.33646) of 2.2%. The Percent viability (WAGA cells (VP-MCC); Log (M) -4.81358) was 2.7%, the Percent viability (WAGA cells (VP-MCC); Log (M) -5.2907) was 3.2% and the Percent viability (WAGA cells (VP-MCC); Log (M) -5.76782) was 3.6%. The Percent viability (WAGA cells (VP-MCC); Log (M) -6.24494) was 3.4%, the Percent viability (WAGA cells (VP-MCC); Log (M) -6.72207) was 4.1% and the Percent viability (WAGA cells (VP-MCC); Log (M) -7.19919) was 5.7%. The Percent viability (WAGA cells (VP-MCC); Log (M) -7.67631) was 15.6%, the Percent viability (WAGA cells (VP-MCC); Log (M) -8.15343) was 103.1% and the Percent viability (WAGA cells (VP-MCC); Log (M) -8.63055) was 106.2%. The Percent viability (WAGA cells (VP-MCC); Log (M) -9.10767) was 107.0%, the “viability of VP-MCC (in words)” value [2] was “potent compound for inhibiting the viability of VP-MCC” and the Percent viability (MCC13 cells (VN-MCC); MCC-13, Log (M) -4.33646) was 8.9%. It also gave a Percent viability (MCC13 cells (VN-MCC); MCC-13, Log (M) -4.81358) of 6.8%, a Percent viability (MCC13 cells (VN-MCC); MCC-13, Log (M) -5.2907) of 19.3% and a Percent viability (MCC13 cells (VN-MCC); MCC-13, Log (M) -5.76782) of 19.0%. For the same compound, the Percent viability (MCC13 cells (VN-MCC); MCC-13, Log (M) -6.24494) was 57.5%, the Percent viability (MCC13 cells (VN-MCC); MCC-13, Log (M) -6.72207) was 89.4% and the Percent viability (MCC13 cells (VN-MCC); MCC-13, Log (M) -7.19919) was 92.8%. The Percent viability (MCC13 cells (VN-MCC); MCC-13, Log (M) -7.67631) was 105.1%, the Percent viability (MCC13 cells (VN-MCC); MCC-13, Log (M) -8.15343) was 92.1% and the Percent viability (MCC13 cells (VN-MCC); MCC-13, Log (M) -8.63055) was 110.1%. The Percent viability (MCC13 cells (VN-MCC); MCC-13, Log (M) -9.10767) was 104.4%, the “growth of MKL-1 (VP-MCC) xenograft tumors (in words)” value [3] was “slowed the growth of MKL-1 (VP-MCC) xenograft tumors” and the viability at 72 h, 46.1 µM ([4]; CRL-7250 cells (control cell line), CRL-7250, Log (M) -4.33646) was -4.6%. For the same compound, the viability at 72 h, 15.4 µM ([4]; CRL-7250 cells (control cell line), CRL-7250, Log (M) -4.81358) was 10.1%, the viability at 72 h, 5.12 µM ([4]; CRL-7250 cells (control cell line), CRL-7250, Log (M) -5.2907) was -5.4% and the viability at 72 h, 1.71 µM ([4]; CRL-7250 cells (control cell line), CRL-7250, Log (M) -5.76782) was -4.8%. The viability at 72 h, 569 nM ([4]; CRL-7250 cells (control cell line), CRL-7250, Log (M) -6.24494) was -8.6%, the viability at 72 h, 190 nM ([4]; CRL-7250 cells (control cell line), CRL-7250, Log (M) -6.72207) was 39.2% and the viability at 72 h, 63.2 nM ([4]; CRL-7250 cells (control cell line), CRL-7250, Log (M) -7.19919) was 65.6%. It also gave a viability at 72 h, 21.1 nM ([4]; CRL-7250 cells, CRL-7250, Log (M) -7.67631) of 101%, a viability at 72 h, 2.34 nM ([4]; CRL-7250 cells, CRL-7250, Log (M) -8.63055) of 100% and a Percent viability (UISO cells (VN-MCC); Log (M) -4.33646) of 1.7%. For the same compound, the Percent viability (UISO cells (VN-MCC); Log (M) -4.81358) was -3.1%, the Percent viability (UISO cells (VN-MCC); Log (M) -5.76782) was 0.3% and the Percent viability (UISO cells (VN-MCC); Log (M) -6.24494) was -7.3%. For the same compound, the Percent viability (UISO cells (VN-MCC); Log (M) -6.72207) was -3.8%, the Percent viability (UISO cells (VN-MCC); Log (M) -7.19919) was 3.4% and the Percent viability (UISO cells (VN-MCC); Log (M) -7.67631) was 44.8%. It also gave a Percent viability (UISO cells (VN-MCC); Log (M) -8.15343) of 99.6%, a Percent viability (UISO cells (VN-MCC); Log (M) -8.63055) of 102.4% and a Percent viability (UISO cells (VN-MCC); Log (M) -9.10767) of 104.0%. It also gave a viability at 72 h, 15.4 µM ([5]; NIH-3T3 cells (control cell line), 3T3, Log (M) -4.81358) of 62.5%, a viability at 72 h, 5.12 µM ([5]; NIH-3T3 cells (control cell line), 3T3, Log (M) -5.2907) of 69.8% and a viability at 72 h, 1.71 µM ([5]; NIH-3T3 cells (control cell line), 3T3, Log (M) -5.76782) of 96.1%. For the same compound, the viability at 72 h, 0.569 µM ([5]; NIH-3T3 cells (control cell line), 3T3, Log (M) -6.24494) was 104%, the viability at 72 h, 190 nM ([5]; NIH-3T3 cells (control cell line), 3T3, Log (M) -6.72207) was 100% and the viability at 72 h, 63.2 nM ([5]; NIH-3T3 cells (control cell line), 3T3, Log (M) -7.19919) was 100%. The viability at 72 h, 21.1 nM ([5]; NIH-3T3 cells (control cell line), 3T3, Log (M) -7.67631) was 104%, the viability at 72 h, 46.1 µM ([5]; NIH-3T3 cells, 3T3, Log (M) -4.33646) was 20.8% and the viability at 72 h, 7.02 nM ([5]; NIH-3T3 cells, 3T3, Log (M) -8.15343) was 103%. For the same compound, the viability at 72 h, 2.34 nM ([5]; NIH-3T3 cells, 3T3, Log (M) -8.63055) was 100%, the viability at 72 h, 0.78 nM ([5]; NIH-3T3 cells, 3T3, Log (M) -9.10767) was 100% and the Percent viability (MKL-2 cells (VP-MCC); MKL2, Log (M) -4.33646) was 5.0%. It also gave a Percent viability (MKL-2 cells (VP-MCC); MKL2, Log (M) -4.81358) of 6.0%, a Percent viability (MKL-2 cells (VP-MCC); MKL2, Log (M) -5.2907) of 6.6% and a Percent viability (MKL-2 cells (VP-MCC); MKL2, Log (M) -5.76782) of 7.9%. It also gave a Percent viability (MKL-2 cells (VP-MCC); MKL2, Log (M) -6.24494) of 7.7%, a Percent viability (MKL-2 cells (VP-MCC); MKL2, Log (M) -6.72207) of 7.4% and a Percent viability (MKL-2 cells (VP-MCC); MKL2, Log (M) -7.19919) of 9.2%. For the same compound, the Percent viability (MKL-2 cells (VP-MCC); MKL2, Log (M) -7.67631) was 27.9%, the Percent viability (MKL-2 cells (VP-MCC); MKL2, Log (M) -8.15343) was 100.0% and the Percent viability (MKL-2 cells (VP-MCC); MKL2, Log (M) -8.63055) was 100.0%. The Percent viability (MKL-2 cells (VP-MCC); MKL2, Log (M) -9.10767) was 102.5%, the Percent viability (MCC26 cells (VN-MCC); MCC-26, Log (M) -4.33646) was 12.7% and the Percent viability (MCC26 cells (VN-MCC); MCC-26, Log (M) -4.81358) was 14.1%. It also gave a Percent viability (MCC26 cells (VN-MCC); MCC-26, Log (M) -5.2907) of 15.5%, a Percent viability (MCC26 cells (VN-MCC); MCC-26, Log (M) -5.76782) of 13.0% and a Percent viability (MCC26 cells (VN-MCC); MCC-26, Log (M) -6.24494) of 32.6%. For the same compound, the Percent viability (MCC26 cells (VN-MCC); MCC-26, Log (M) -6.72207) was 74.3%, the Percent viability (MCC26 cells (VN-MCC); MCC-26, Log (M) -7.19919) was 94.8% and the Percent viability (MCC26 cells (VN-MCC); MCC-26, Log (M) -7.67631) was 100.8%. For the same compound, the Percent viability (MCC26 cells (VN-MCC); MCC-26, Log (M) -8.15343) was 100.6%, the Percent viability (MCC26 cells (VN-MCC); MCC-26, Log (M) -8.63055) was 101.9% and the Percent viability (MCC26 cells (VN-MCC); MCC-26, Log (M) -9.10767) was 102.7%.
